Measurements from paper PMC3172288, “RLIP76, a Glutathione-Conjugate Transporter, Plays a Major Role in the Pathogenesis of Metabolic Syndrome” (PLoS ONE, 2011).

Legend:
RLIP76 [1] = biological target: T1, RLIP76 (Homo sapiens, UniProt Q15311); experiment: ATP-dependent uptake of 3H-GSHNE into RLIP76 proteoliposomes; assay type: biochemical; settings: 10 µM, labelled compound, 37 °C
T1 construct: gene RALBP1; purified recombinant RLIP76 reconstituted in proteoliposomes
T1 sequence (Q15311 2-655): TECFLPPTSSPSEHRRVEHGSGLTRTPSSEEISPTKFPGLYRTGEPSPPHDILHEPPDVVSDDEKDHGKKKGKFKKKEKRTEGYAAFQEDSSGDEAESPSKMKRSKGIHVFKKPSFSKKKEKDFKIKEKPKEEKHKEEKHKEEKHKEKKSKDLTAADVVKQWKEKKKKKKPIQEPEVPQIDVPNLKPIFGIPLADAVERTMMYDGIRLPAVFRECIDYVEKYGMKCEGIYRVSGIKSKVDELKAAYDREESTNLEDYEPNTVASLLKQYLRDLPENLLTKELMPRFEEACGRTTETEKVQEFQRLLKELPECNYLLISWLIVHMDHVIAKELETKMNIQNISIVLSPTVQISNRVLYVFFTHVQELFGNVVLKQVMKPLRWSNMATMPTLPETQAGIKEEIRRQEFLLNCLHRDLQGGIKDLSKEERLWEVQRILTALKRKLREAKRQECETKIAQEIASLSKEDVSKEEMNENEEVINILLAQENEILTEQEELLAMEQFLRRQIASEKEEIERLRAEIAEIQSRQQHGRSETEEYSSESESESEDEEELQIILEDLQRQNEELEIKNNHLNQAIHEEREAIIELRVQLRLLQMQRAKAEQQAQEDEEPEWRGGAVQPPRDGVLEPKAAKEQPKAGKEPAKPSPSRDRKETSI

RLIP76 [2] = biological target: T1, RLIP76; experiment: inhibition of ATP-dependent 3H-GSHNE uptake into RLIP76 proteoliposomes; assay type: biochemical; settings: 10 µM 3H-GSHNE, 0-100 µM drug, 30 min incubation at 37 °C

SMILES	ATP-dependent uptake of 3H-GSHNE into RLIP76 proteoliposomes (RLIP76 [1])	inhibition of ATP-dependent 3H-GSHNE uptake into RLIP76 proteoliposomes (RLIP76 [2])
CCCCCC(O)C(CC=O)SC[C@H](NC(=O)CC[C@H](N)C(=O)O)C(=O)NCC(=O)O (stereo partly drawn) [3H-GSHNE]	ATP-dependent uptake of ^3H-GSHNE	–
CN(C)C(=N)NC(=N)N [metformin]	–	metformin inhibits only half of the transport activity
CN(CCOc1ccc(CC2SC(=O)NC2=O)cc1)c1ccccn1 (stereo not drawn) [rosiglitazone]	–	Inhibition of the transport activity of purified recombinant human RLIP76 towards physiological substrate
